Experimental data from ChEMBL document CHEMBL4507291 (2021).

Experiments:
[1] = target: MAP kinase-activated protein kinase 3 (Homo sapiens) (UniProt Q16644); experiment: MAPKAPK3 Kinase screen; conditions: Compound concentration 1.0 uM
[2] = tested on: Platelet-derived growth factor receptor alpha (Homo sapiens), P16234 [V561D]; experiment: PDGFRA V561D Kinase screen; conditions: Compound concentration 1.0 uM
[3] = target: Peroxisome proliferator-activated receptor gamma (Homo sapiens, UniProt P37231); experiment: (§1) PPARgamma Eurofins-Panlabs radioligand binding assay; parameters: ligand concentration 5 nM, non-specific ligand with concentration 0.5 µM L-797773, incubation time 18 h, incubation temperature 15 °C
[4] = target: T1, Peroxisome proliferator-activated receptor gamma (Homo sapiens) (UniProt P37231); experiment: as §1; parameters: ligand concentration 5 nM, non-specific ligand with concentration 0.5 µM L-797773, incubation time 18 h, incubation temperature 15 °C
T1 sequence (whole entry): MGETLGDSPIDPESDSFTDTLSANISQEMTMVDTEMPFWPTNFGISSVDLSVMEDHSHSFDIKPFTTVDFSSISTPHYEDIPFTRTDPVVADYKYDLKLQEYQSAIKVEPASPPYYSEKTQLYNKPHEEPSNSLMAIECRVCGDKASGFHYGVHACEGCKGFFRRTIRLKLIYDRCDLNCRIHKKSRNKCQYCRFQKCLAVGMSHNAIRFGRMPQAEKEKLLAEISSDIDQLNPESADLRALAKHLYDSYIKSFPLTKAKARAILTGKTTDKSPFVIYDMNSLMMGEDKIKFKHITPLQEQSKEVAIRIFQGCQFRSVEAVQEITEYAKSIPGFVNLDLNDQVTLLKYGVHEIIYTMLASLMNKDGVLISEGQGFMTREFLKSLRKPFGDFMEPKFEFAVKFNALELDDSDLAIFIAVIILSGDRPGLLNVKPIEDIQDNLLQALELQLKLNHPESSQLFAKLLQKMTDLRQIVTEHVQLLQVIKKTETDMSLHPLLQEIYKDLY

[5] = target: Tyrosine-protein kinase FRK (Homo sapiens) (UniProt P42685); experiment: FRK (PTK5) Kinase screen; conditions: Compound concentration 1.0 uM
Sequence of Tyrosine-protein kinase FRK (Homo sapiens) (P42685 whole entry): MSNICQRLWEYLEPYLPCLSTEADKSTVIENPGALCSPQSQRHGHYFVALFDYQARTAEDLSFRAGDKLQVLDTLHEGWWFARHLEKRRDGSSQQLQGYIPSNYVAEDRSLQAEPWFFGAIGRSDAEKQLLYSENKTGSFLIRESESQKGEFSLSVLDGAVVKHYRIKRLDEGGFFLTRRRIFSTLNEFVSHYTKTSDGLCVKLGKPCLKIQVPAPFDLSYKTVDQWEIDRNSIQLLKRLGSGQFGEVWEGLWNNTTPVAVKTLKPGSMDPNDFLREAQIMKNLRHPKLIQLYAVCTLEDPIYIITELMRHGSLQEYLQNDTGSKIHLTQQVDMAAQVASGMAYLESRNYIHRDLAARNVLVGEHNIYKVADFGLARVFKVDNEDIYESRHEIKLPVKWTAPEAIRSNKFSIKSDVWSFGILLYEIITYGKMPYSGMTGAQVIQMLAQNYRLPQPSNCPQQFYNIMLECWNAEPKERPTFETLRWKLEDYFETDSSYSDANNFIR

[6] = target: Fibroblast growth factor receptor 2 (Homo sapiens) (UniProt P21802); experiment: FGFR2 Kinase screen; conditions: Compound concentration 1.0 uM
[7] = target: Fibroblast growth factor receptor 1 (Homo sapiens) (UniProt P11362); experiment: FGFR1 Kinase screen; conditions: Compound concentration 1.0 uM
Sequence of Fibroblast growth factor receptor 1 (Homo sapiens) (P11362 22-822 limits assumed): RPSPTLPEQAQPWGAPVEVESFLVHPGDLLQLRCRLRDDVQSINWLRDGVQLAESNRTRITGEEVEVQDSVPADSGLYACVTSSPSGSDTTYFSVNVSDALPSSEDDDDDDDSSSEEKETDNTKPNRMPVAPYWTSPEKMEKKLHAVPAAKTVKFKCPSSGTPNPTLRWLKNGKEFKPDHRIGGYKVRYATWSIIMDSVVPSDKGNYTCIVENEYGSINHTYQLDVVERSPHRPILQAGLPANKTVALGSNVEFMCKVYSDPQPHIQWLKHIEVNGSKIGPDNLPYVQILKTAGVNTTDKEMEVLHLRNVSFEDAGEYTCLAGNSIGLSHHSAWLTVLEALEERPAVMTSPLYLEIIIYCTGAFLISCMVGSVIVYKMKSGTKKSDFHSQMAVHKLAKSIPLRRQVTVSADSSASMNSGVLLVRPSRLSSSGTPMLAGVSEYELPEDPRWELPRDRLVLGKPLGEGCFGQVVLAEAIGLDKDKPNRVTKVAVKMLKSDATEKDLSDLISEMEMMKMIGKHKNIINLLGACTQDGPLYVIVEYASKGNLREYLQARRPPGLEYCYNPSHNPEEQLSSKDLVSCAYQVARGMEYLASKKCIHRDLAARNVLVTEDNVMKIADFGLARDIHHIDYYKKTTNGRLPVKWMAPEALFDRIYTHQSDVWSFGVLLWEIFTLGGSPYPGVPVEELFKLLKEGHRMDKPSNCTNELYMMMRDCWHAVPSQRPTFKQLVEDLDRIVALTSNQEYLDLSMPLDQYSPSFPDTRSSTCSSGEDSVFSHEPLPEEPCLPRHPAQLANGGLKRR

[8] = tested on: Proto-oncogene tyrosine-protein kinase receptor Ret (Homo sapiens), P07949 [V804L]; experiment: RET V804L Kinase screen; conditions: Compound concentration 1.0 uM
[9] = target: Glutamate receptor 2 (Homo sapiens) (UniProt P42262); conditions: Rattus norvegicus; Compound concentration 10.0 uM
[10] = target: Peroxisome proliferator-activated receptor alpha (Homo sapiens) (UniProt Q07869); experiment: PPARalpha Eurofins-Panlabs radioligand binding assay; conditions: Compound concentration 10.0 uM
[11] = target: T2, Muscle, skeletal receptor tyrosine-protein kinase (Homo sapiens) (UniProt O15146); experiment: MUSK Kinase screen; conditions: Compound concentration 1.0 uM
T2 sequence (whole entry): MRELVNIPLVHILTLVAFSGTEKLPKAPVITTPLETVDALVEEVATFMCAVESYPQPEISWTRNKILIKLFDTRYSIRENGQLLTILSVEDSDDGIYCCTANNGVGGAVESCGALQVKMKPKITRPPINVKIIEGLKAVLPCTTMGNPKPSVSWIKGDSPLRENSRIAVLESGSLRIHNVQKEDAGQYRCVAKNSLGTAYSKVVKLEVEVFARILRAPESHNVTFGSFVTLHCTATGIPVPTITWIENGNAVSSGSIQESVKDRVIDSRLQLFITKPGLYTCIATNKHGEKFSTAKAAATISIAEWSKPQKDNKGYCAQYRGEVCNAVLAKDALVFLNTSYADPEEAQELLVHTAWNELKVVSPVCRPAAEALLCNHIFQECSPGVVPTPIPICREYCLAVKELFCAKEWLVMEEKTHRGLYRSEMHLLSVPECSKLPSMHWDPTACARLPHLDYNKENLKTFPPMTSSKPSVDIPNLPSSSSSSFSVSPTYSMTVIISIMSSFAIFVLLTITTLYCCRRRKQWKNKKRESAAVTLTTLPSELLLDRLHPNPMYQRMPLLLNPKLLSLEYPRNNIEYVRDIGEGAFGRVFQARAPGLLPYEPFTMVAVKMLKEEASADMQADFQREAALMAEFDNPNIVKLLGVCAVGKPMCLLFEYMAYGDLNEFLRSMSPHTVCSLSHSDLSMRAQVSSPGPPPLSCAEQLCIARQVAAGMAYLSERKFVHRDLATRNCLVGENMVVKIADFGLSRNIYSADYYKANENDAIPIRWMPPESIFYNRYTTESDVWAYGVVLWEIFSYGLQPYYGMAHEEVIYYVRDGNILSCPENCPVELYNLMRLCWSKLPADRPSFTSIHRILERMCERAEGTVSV

[12] = target: AMP-activated protein kinase (AMPK) alpha-1/beta-1/gamma-1 (Homo sapiens) (UniProt P54619+Q9Y478+Q13131); experiment: AMPK A1/B1/G1 Kinase screen; format: protein-complex assay; conditions: Compound concentration 1.0 uM
Sequence of AMP-activated protein kinase (AMPK) alpha-1/beta-1/gamma-1 (Homo sapiens) (P54619 whole entry): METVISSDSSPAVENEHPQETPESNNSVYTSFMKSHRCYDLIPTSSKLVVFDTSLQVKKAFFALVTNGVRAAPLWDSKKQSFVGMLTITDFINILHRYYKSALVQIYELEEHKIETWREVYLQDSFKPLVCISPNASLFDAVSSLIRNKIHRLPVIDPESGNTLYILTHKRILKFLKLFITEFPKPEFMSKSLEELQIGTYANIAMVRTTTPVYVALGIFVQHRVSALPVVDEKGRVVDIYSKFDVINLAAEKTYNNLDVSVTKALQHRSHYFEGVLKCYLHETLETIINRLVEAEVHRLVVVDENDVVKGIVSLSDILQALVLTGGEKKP
Sequence of AMP-activated protein kinase (AMPK) alpha-1/beta-1/gamma-1 (Homo sapiens) (Q13131 whole entry partner): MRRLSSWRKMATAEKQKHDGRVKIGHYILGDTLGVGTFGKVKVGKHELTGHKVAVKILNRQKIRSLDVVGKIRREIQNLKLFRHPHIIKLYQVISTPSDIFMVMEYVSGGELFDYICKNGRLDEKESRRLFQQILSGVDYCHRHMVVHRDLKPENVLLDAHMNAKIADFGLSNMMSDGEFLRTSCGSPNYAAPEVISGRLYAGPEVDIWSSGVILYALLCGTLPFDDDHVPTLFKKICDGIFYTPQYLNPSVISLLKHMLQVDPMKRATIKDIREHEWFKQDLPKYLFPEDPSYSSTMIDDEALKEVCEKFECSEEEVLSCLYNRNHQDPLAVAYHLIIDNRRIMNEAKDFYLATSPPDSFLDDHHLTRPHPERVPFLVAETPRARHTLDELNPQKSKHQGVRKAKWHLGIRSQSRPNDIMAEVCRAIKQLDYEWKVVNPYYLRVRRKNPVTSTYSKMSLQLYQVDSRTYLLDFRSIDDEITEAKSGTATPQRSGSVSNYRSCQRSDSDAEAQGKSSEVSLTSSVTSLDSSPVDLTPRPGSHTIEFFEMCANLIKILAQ
Sequence of AMP-activated protein kinase (AMPK) alpha-1/beta-1/gamma-1 (Homo sapiens) (Q9Y478 2-270 partner limits assumed): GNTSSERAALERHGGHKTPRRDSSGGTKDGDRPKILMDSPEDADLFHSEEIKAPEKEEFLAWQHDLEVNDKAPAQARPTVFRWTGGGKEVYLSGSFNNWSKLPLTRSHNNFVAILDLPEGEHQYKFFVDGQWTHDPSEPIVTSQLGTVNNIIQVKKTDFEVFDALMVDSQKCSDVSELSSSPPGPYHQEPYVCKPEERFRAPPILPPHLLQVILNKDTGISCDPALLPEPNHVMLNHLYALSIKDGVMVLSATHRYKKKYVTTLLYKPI

[13] = target: Adenosine Transporter (Cavia porcellus) (UniProt H0V4R7+H0UUG1+H0V3Z5); experiment: (§2) Inhibition of Transporter, Adenosine at compound concentration of 10.0 uM in the Eurofins-Panlabs radioligand binding assay (Eurofins_assay_202000); format: protein assay; parameters: ligand concentration 0.5 nM, non-specific ligand with concentration 5 uM Nitrobenzylthioinosine, incubation time 30 min, incubation temperature 25 C
[14] = target: Adenosine Transporter (Cavia porcellus, UniProt H0V4R7+H0UUG1+H0V3Z5); experiment: as §2; format: protein assay; parameters: ligand concentration 0.5 nM, non-specific ligand with concentration 5 uM Nitrobenzylthioinosine, incubation time 30 min, incubation temperature 25 C
[15] = tested on: Tyrosine-protein kinase ABL1 (Homo sapiens), P00519 [Y253F]; experiment: ABL1 Y253F Kinase screen; conditions: Compound concentration 1.0 uM
[16] = target: Misshapen-like kinase 1 (Homo sapiens) (UniProt Q8N4C8); experiment: MINK1 Kinase screen; conditions: Compound concentration 1.0 uM
[17] = target: T3, MAP kinase-activated protein kinase 5 (Homo sapiens) (UniProt Q8IW41); experiment: MAPKAPK5 (PRAK) Kinase screen; conditions: Compound concentration 1.0 uM
T3 sequence (whole entry): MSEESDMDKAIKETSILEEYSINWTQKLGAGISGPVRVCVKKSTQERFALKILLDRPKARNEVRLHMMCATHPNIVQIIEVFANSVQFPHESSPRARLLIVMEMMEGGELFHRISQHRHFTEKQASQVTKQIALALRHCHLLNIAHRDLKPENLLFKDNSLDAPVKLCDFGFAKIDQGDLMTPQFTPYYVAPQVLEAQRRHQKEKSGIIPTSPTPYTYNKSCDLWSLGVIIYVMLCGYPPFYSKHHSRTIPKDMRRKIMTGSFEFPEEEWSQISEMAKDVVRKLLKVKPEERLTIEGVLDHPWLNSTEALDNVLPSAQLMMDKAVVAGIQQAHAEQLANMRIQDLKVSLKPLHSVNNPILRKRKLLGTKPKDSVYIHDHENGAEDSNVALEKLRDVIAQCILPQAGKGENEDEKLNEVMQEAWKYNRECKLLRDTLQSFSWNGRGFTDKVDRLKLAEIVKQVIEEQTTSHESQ

[18] = target: Dual specificity tyrosine-phosphorylation-regulated kinase 1B (Homo sapiens) (UniProt Q9Y463); experiment: DYRK1B Kinase screen; conditions: Compound concentration 1.0 uM
Sequence of Dual specificity tyrosine-phosphorylation-regulated kinase 1B (Homo sapiens) (Q9Y463 whole entry, looked up): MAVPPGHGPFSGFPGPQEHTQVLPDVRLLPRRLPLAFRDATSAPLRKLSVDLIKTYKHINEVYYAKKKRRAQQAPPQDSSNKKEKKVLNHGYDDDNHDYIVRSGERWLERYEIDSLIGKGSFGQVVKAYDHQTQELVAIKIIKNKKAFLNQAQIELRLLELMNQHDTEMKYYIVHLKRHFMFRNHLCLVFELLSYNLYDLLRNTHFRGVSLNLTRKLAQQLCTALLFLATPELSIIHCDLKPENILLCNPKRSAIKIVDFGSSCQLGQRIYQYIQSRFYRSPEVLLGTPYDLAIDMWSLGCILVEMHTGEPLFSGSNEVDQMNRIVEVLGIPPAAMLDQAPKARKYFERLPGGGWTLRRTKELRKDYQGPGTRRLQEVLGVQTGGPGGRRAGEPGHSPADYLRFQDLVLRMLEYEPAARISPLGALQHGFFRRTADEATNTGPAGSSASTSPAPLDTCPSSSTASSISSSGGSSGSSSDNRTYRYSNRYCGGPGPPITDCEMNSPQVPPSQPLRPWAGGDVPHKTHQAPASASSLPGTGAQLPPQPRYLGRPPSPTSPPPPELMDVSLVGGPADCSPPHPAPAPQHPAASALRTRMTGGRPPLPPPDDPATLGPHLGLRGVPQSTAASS

[19] = target: Endothelin receptor type B (Homo sapiens) (UniProt P24530); conditions: Compound concentration 10.0 uM
Sequence of Endothelin receptor type B (Homo sapiens) (P24530 whole entry): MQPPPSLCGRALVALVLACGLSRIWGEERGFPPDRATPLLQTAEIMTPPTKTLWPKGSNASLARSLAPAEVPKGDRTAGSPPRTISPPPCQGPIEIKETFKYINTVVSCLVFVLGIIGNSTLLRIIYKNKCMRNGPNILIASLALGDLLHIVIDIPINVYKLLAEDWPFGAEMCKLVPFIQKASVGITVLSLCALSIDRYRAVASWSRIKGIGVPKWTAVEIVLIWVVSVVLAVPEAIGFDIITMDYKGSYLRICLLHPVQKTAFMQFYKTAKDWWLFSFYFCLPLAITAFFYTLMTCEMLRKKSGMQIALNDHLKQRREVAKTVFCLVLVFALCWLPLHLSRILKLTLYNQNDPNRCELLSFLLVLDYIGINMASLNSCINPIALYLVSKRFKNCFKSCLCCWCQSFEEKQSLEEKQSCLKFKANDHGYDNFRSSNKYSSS

Sequence of Platelet-derived growth factor receptor alpha (Homo sapiens), P16234 [V561D] (P16234 whole entry V561D): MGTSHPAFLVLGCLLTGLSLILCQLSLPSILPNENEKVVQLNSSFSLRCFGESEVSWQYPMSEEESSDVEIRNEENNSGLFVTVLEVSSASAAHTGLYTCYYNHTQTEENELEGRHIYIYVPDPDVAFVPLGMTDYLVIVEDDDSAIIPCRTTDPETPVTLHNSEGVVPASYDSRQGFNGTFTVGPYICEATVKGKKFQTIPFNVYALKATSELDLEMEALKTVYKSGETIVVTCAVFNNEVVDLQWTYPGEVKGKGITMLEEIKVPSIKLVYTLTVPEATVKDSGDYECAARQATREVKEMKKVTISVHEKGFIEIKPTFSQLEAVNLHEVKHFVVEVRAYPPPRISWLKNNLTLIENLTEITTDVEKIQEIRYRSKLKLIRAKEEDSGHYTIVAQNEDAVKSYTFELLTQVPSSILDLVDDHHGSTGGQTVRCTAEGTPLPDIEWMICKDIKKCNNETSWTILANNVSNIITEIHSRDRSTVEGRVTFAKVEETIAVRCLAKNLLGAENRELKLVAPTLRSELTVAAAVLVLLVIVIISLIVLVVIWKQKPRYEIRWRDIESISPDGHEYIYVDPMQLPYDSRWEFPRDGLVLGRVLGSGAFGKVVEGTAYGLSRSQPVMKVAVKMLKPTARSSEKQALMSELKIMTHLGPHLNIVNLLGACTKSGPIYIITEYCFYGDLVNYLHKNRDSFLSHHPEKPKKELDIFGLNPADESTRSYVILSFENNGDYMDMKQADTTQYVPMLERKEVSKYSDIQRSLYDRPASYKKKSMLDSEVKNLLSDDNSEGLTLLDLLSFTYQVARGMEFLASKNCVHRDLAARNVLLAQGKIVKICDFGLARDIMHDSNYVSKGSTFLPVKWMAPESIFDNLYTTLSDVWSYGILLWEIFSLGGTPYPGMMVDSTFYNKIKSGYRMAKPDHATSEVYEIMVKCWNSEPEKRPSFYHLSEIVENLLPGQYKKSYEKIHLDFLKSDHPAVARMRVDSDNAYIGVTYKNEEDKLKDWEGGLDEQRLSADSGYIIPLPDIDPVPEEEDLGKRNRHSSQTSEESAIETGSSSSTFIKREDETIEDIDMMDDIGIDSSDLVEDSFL
Sequence of MAP kinase-activated protein kinase 3 (Homo sapiens) (Q16644 whole entry, looked up): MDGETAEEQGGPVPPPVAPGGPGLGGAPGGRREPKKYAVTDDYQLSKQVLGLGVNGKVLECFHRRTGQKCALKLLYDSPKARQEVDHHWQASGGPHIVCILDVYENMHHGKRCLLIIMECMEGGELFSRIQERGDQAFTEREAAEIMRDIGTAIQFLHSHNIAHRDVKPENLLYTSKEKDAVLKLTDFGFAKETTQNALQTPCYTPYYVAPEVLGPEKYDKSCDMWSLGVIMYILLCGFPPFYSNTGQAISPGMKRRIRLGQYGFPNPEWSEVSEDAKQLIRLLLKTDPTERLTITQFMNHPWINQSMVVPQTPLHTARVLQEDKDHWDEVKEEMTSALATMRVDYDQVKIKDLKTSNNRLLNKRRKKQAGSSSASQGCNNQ

C[C@@H]1CN(c2cc(-c3n[nH]c4ccc(OC5(C)CC5)cc34)ncn2)C[C@H](C)O1 [MLi-2] showed an inhibition [1] of 3.73%, an inhibition [2] of 8.06% and a Ki [3] of 1190 nM. The inhibition ([4]; Compound concentration 0.01 uM) was 6%, the inhibition ([4]; Compound concentration 0.1 uM) was 0% and the inhibition ([4]; Compound concentration 1.0 uM) was 10%. The inhibition ([4]; Compound concentration 10.0 uM) was 62%, the inhibition [5] was 7.13% and the inhibition [6] was -3.35%. It also gave an inhibition [7] of 3.88%, an inhibition [8] of 5.69% and an inhibition [9] of -2%. The inhibition [10] was 10%, the inhibition [11] was -0.0337% and the inhibition [12] was -3.77%. The inhibition ([13]; Compound concentration 0.01 uM) was 2%, the inhibition ([13]; Compound concentration 0.1 uM) was -1% and the inhibition ([13]; Compound concentration 1.0 uM) was 11%. For the same compound, the inhibition ([13]; Compound concentration 10.0 uM) was 51%, the IC50 [14] was 9700 nM and the Ki [14] was 3320 nM. The inhibition [15] was 7.26%, the inhibition [16] was 4.58% and the inhibition [17] was 14.2%. The inhibition [18] was 1.77% and the inhibition [19] was -1%.
